The values below come from patent US12172966B1, “2-(1H-imidazole-1-carbonyl)benzoic acid as an anticancer compound” (KING FAISAL UNIVERSITY, priority 2023, dated 2024).

Some results are limits rather than exact numbers.

In assay [1] the test system is human prostate cancer cells (PC3). The assay can be described thus: Assessment of cytotoxicity by SRB assay, prostate cancer cells. The conditions noted are these: for IC50: mean±SD. It is filed as cell-based. The source says:
(§1) The anticancer activity of the described synthesized compounds against highly aggressive androgen-independent metastatic human prostate cancer cells (PC3) and osteosarcoma (MG-63) cells. The human prostate cancer cells (PC3) and human osteosarcoma cells (MG-63) were obtained from Nawah Scientific Inc. (Mokatam, Cairo, Egypt) and cultured in DMEM (Dulbecco's modified eagle's medium), Gibco, USA, supplemented with fetal bovine serum (FBS) at a concentration of 10% and 100 U/mL of penicillin and streptomycin (PS). The Cells were incubated at 37° C. in a humidified environment that contained 5% CO2.
(§2) Cells were seeded in 96-well plates as aliquots of 100 μL cell suspension and incubated in a complete media for 24 h. afterward, cells were treated with 2-(1H-imidazole-1-carbonyl)benzoic acid at diverse concentrations ranging from 0.01 μM to 100 μM for 72 h. Then, cells were fixed at 4° C. for one hour with 150 μL of 10% trichloroacetic acid (TCA). After washing the cells five times with distilled water, […] of sulforhodamine (SRB) solution (0.4% w/v) was added and incubated for 10 min at room temperature in a dark place. Cells were washed with 1% acetic acid three times and allowed to air-dry. Then, 150 μL of Tris pH 10.5 (10 mM) was added, and the absorbance was measured at 540 nm using a BMG LABTECH®—FLUOstar Omega microplate reader (Ortenberg, Germany). Half maximal inhibitory concentrations (IC50) values were calculated for each experiment using GraphPad Prism 6 software. IC50 values were reported as mean±SD.
(§3) The inhibition was calculated using the following equation: Inhibition %=100−Average Viability

The test system of assay [2] is human osteosarcoma cells (MG-63). Put plainly: Assessment of cytotoxicity by SRB assay, osteosarcoma cells. Format: cell-based. The conditions noted are these: for IC50: mean±SD.
From the text: as §1, §2, §3

The mark [3] stands for this setting: Homo sapiens, MG-63 cells, 72 h.

For `O=C(O)c1ccccc1C(=O)n1ccnc1` [2-(1H-imidazole-1-carbonyl)benzoic acid], the inhibition at 10 µg/mL in assay [1] (Homo sapiens, PC-3, 72 h, PC-3 cells, 10 μg/ml, 72 h) worked out at 93%; in assay [2] (Homo sapiens, MG-63 cells, 10 μg/ml, 72 h), 88.9%. Moreover, the IC50 turned out to be 2.67 ± 0.03 µM in assay [1] (Homo sapiens, PC-3 cells, 72 h) and 3.55 ± 0.2 µM in assay [2] (setting [3]). The “Prostate cancer (PC-3) Inhibition %” value in assay [1] (PC-3 cells, 10 μg/ml, 72 h) is 93.44%. For the same compound, the IC50 values, prostate cancer cell line in assay [1] (PC-3 cells, bound stated in text for both cell lines) was below 4 µM. Further, the “antiproliferative activities against cancer cells (PC3)” value in assay [1] (result in words) was “excellent antiproliferative activities”. In addition, the inhibition at 100 µg/mL in assay [2] (Homo sapiens, MG-63 cells, 100 μg/ml, 72 h) worked out at 90.9%. The IC50 values, osteosarcoma cell line in assay [2] (MG-63 cells, bound stated in text for both cell lines) is below 4 µM. Besides, the “antiproliferative activities against osteosarcoma (MG-63) cells” value in assay [2] (result in words) is reported as “excellent antiproliferative activities”.

Turning to `COc1cccc2c1C(=O)c1c(O)c3c(c(O)c1C2=O)C[C@@](O)(C(=O)CO)C[C@@H]3O[C@H]1C[C@H](N)[C@H](O)[C@H](C)O1` [DOX, Doxorubicin, reference compound], the 50% inhibitory concentration (IC50) in assay [1] (Homo sapiens, PC-3 cells, 72 h) is 7.5 ± 0.45 µM; in assay [2] (setting [3]) it was 9.3 ± 1.1 µM.

By inhibition is commonly meant the change of the read-out against control, counted positive when it falls. Read a low inhibition as a response near the control. Broadly, the IC50 is the concentration that inhibits the measured activity by half. A lower IC50 goes with greater potency in that assay.
